Converted amounts (≈) assume the structure as drawn.
What was measured:
A549 lung cancer cells = assay: Experiments of inhibiting growth of cancer cells, SRB method, A549; format: cell-based; details: Homo sapiens, 48 h with drug
Procedure: (§1) The cells were placed in 2.5 cm culture dish and cultured at 37° C. in wet air containing 5% CO2. Cell lines grew adhering to wall. The preparation and dilution of samples as well as process for inoculating them to cellular fluid were performed under aseptic condition. The test samples usually were dissolved in DMSO, stored at −70° C. […] GI50 values about inhibiting growth of cancer cells were determined by SRB (sulfonyl rhodamine B) method. Anticancer drug paclitaxel was used as positive control.
(§2) A549: lung cancer cells; DU145: prostate cancer cells; KB: nasopharyngeal cancer cells; KB-VIN: drug-resistant nasopharyngeal cancer cells. GI50 value was the concentration that causes 50% cancer cells growth inhibition, showing anticancer activity.

[1] = system: DU145 prostate cancer cells; assay: Experiments of inhibiting growth of cancer cells, SRB method, DU145; format: cell-based; details: Homo sapiens, DU-145, 48 h with drug
Procedure: as §1, §2

Row | Compound | GI50 (A549 lung cancer cells) [µg/mL] | GI50 [1] [µg/mL] | melting point [°C]
1 | COc1ccc2c(c1)CCCN2c1nc(Cl)nc2ccccc12 [Compound 1, N^1-[4-(2-chloro)quinazolinyl]-6-methoxy-1,2,3,4-tetrahydroquinoline] | 0.0006 (≈ 0.00184 µM) | 0.0005 (≈ 0.00153 µM) | –
2 | COc1ccc2c(c1)CCCN2c1nc(C)nc2ccccc12 [Compound 2, N^1-[4-(2-methyl)quinazolinyl]-6-methoxy-1,2,3,4-tetrahydroquinoline] | 0.0056 (≈ 0.0183 µM) | 0.0046 (≈ 0.0151 µM) | –
3 | COc1ccc2c(c1)CCCN2c1nc(OC)nc2ccccc12 [Compound 3, N^1-[4-(2-methoxy)quinazolinyl]-6-methoxy-1,2,3,4-tetrahydro-quinoline] | 0.0077 (≈ 0.024 µM) | 0.0069 (≈ 0.0215 µM) | 161 to 163
4 | CNc1nc(N2CCCc3cc(OC)ccc32)c2ccccc2n1 [Compound 4, N^1-[4-(2-methylamino)quinazolinyl]-6-methoxy-1,2,3,4-tetrahydro-quinoline] | 0.0088 (≈ 0.0275 µM) | 0.0075 (≈ 0.0234 µM) | –
5 | Cc1ccc2c(c1)CCCN2c1nc(C)nc2ccccc12 [Compound 6, N^1-[4-(2-methyl)quinazolinyl]-6-methyl-1,2,3,4-tetrahydroquinoline] | 0.061 (≈ 0.211 µM) | 0.051 (≈ 0.176 µM) | 136 to 138
6 | Cc1nc(N2CCCc3cc(Br)ccc32)c2ccccc2n1 [Compound 7, N^1-[4-(2-methyl)quinazolinyl]-6-bromo-1,2,3,4-tetrahydroquinoline] | 0.075 (≈ 0.212 µM) | 0.06 (≈ 0.169 µM) | 129 to 130
7 | COc1ccc2c(c1)CCN2c1nc(C)nc2ccccc12 [Compound 8, 2-Methyl-4-[N^1-(5-methoxy)indolinyl]quinazoline] | 0.0679 (≈ 0.233 µM) | 0.059 (≈ 0.203 µM) | 116 to 117
8 | COc1ccc2c(c1)CCCN(c1nc(C)nc3ccccc13)C2 [Compound 9, N^2-[4-(2-methyl)quinazolinyl]-7-methoxy-2,3,4,5-tetrahydro-1H-benzo[c]azepine] | 5.34 (≈ 16.7 µM) | 4.76 (≈ 14.9 µM) | 125 to 127
9 | COc1ccc2c(c1)CCCCN2c1nc(Cl)nc2ccccc12 [Compound 10, N^1-[4-(2-chloro)quinazolinyl]-7-methoxy-2,3,4,5-tetrahydro-1H-benzo[b]-azepine] | 0.065 (≈ 0.191 µM) | 0.056 (≈ 0.165 µM) | 102 to 103
10 | COc1ccc2c(c1)C(O)CCN2c1nc(C)nc2ccccc12 (stereo not shown) [Compound 11, N^1-[4-(2-methyl)quinazolinyl]-4-hydroxyl-6-methoxy-1,2,3,4-tetrahydroquinoline] | 0.006 (≈ 0.0187 µM) | 0.006 (≈ 0.0187 µM) | –
11 | CCOC1CCN(c2nc(Cl)nc3ccccc23)c2ccc(OC)cc21 (stereo not shown) [Compound 12, N^1-[4-(2-chloro)quinazolinyl]-4-ethoxy-6-methoxy-1,2,3,4-tetrahydroquinoline] | 0.065 (≈ 0.176 µM) | 0.06 (≈ 0.162 µM) | 70 to 72
12 | COc1ccc2c(c1)OCCN2c1nc(Cl)nc2ccccc12 [Compound 13, N^4-[4-(2-chloro)quinazolinyl]-7-methoxy-3,4-dihydro-2H-benzo[b][1,4]oxazine] | 0.065 (≈ 0.198 µM) | 0.055 (≈ 0.168 µM) | 173 to 174
13 | COc1cc2c(cc1F)N(c1nc(C)nc3ccccc13)CCO2 [Compound 14, N^4-[4-(2-methyl)quinazolinyl]-6-fluoro-7-methoxy-3,4-dihydro-2H-benzo[b][1,4]oxazine] | 4.71 (≈ 14.5 µM) | 7.77 (≈ 23.9 µM) | 192 to 194
14 | COc1ccc2c(c1)C(=O)CCN2c1nc(Cl)nc2ccccc12 [Compound 18, N^1-[4-(2-chloro)quinazolinyl]-6-methoxy-2,3-dihydroquinolin-4(1H)-one] | 0.0091 (≈ 0.0268 µM) | 0.0106 (≈ 0.0312 µM) | 218 to 220
15 | COc1ccc2c(c1)NC(=O)CN2c1nc(C)nc2ccccc12 [Compound 19, N^4-[4-(2-methyl)quinazolinyl]-7-methoxy-3,4-dihydroquinoxalin-2(1H)-one] | 0.001 (≈ 0.00312 µM) | 0.0007 (≈ 0.00219 µM) | –
16 | COc1ccc2c(c1)CCCN2c1cc(C)nc2ccccc12 [Compound 20, 6-methoxy-2′-methyl-3,4-dihydro-2H-1,4′-biquinoline] | 0.0138 (≈ 0.0453 µM) | 0.0115 (≈ 0.0378 µM) | –
17 | COC(=O)c1cc(Br)cc(N2CCCc3cc(OC)ccc32)c1 [Compound 26, N^1-[(3-bromo-5-methoxycarbonyl)phenyl]-6-methoxy-1,2,3,4-tetrahydroquinoline] | 0.421 (≈ 1.12 µM) | 0.483 (≈ 1.28 µM) | –
18 | COc1ccc2c(c1)CCCN2c1cc(Br)cc(C(=O)O)c1 [Compound 27, N^1-[(3-bromo-5-carboxyl)phenyl]-6-methoxy-1,2,3,4-tetrahydro-quinoline] | – | – | 175 to 177
19 | CNC(=O)c1cc(Br)cc(N2CCCc3cc(OC)ccc32)c1 [Compound 28, N^1-[(3-bromo-5-methylaminoacyl)phenyl]-6-methoxy-1,2,3,4-tetrahydroquinoline] | 0.14 (≈ 0.373 µM) | 0.209 (≈ 0.557 µM) | 166 to 167
20 | COc1ccc2c(c1)CCCN2c1cc(Br)cc(C(=O)NC2CC2)c1 [Compound 29, N^1-[3-bromo-5-(N-cyclopropylaminoacyl)phenyl]-6-methoxy-1,2,3,4-tetrahydroquinoline] | 0.067 (≈ 0.167 µM) | 0.062 (≈ 0.154 µM) | –
21 | COc1ccc2c(c1)CCCN2c1cc(Cl)nc(N)n1 [Compound 30, N^1-[4-(2-amino-6-chloro)pyrimidinyl]-6-methoxy-1,2,3,4-tetrahydro-quinoline] | 0.077 (≈ 0.265 µM) | 0.06 (≈ 0.206 µM) | 179 to 181
22 | COc1ccc2c(c1)N(C)C(=O)CN2c1nc(C)nc2ccccc12 [Compound 31, N^1-methyl-N^4-[4-(2-methyl)quinazolinyl]-7-methoxy-3,4-dihydro-quinoxalin-2(1H)-one] | 0.0063 (≈ 0.0188 µM) | 0.0072 (≈ 0.0215 µM) | –
23 | COc1ccc2c(c1)CCCN2c1nc(N(C)C)nc2ccccc12 [Compound 32, 2-(N-methylmethylamino)-4-(6-methoxy-1,2,3,4-tetrahydro-1-quinolyl)quinazoline] | 0.056 (≈ 0.167 µM) | 0.051 (≈ 0.153 µM) | –
24 | COc1ccc2c(c1)CCCN2c1nc(NC2CC2)nc2ccccc12 [Compound 33, 2-cyclopropylamino-4-(6-methoxy-1,2,3,4-tetrahydro-1-quinolyl) quinazoline] | 0.0057 (≈ 0.0165 µM) | 0.0045 (≈ 0.013 µM) | –
25 | COc1ccc2c(c1)CCCN2c1nc(NC2CCCC2)nc2ccccc12 [Compound 34, 2-cyclopentylamino-4-(6-methoxy-1,2,3,4-tetrahydro-1-quinolyl) quinazoline] | 0.501 (≈ 1.34 µM) | 0.483 (≈ 1.29 µM) | –
26 | COc1ccc2c(c1)CCCN2c1nc(NCCCO)nc2ccccc12 [Compound 35, 2-(3-hydroxylpropylamino)-4-(6-methoxy-1,2,3,4-tetrahydro-1-quinolyl)quinazoline] | 0.0058 (≈ 0.0159 µM) | 0.0073 (≈ 0.02 µM) | –
27 | COc1ccc2c(c1)CCCN2c1cccc2ccccc12 [Compound 37, 4-(6-methoxy-1,2,3,4-tetrahydro-1-quinolyl)naphthalene] | 5.15 (≈ 17.8 µM) | 4.27 (≈ 14.8 µM) | –
28 | CC(=O)O[C@H]1C(=O)[C@@]2(C)[C@H]([C@H](OC(=O)c3ccccc3)[C@]3(O)C[C@H](OC(=O)[C@H](O)[C@@H](NC(=O)c4ccccc4)c4ccccc4)C(C)=C1C3(C)C)[C@]1(OC(C)=O)CO[C@@H]1C[C@@H]2O [Paclitaxel, paclitaxel, reference compound] | 0.0065 (≈ 0.00761 µM) | 0.0053 (≈ 0.00621 µM) | –
